The values below come from patent publication US20250114345A1, “COMPOUNDS AND COMPOSITIONS AS CBP/P300 DEGRADERS AND USES THEREOF” (Oncopia Therapeutics, Inc. d/b/a/ SK Life Science Labs, priority 2023, published 2025).

For assay [1], the target named is T1, p300 (Homo sapiens, UniProt Q09472).
T1 construct: host or cells: A549 P300 HiBit cells
The assay is described as follows: P300 degradation, HiBit technology in A549 P300 HiBit cells (2 h). The settings on record: 2 hrs post treatment; for Dmax: A549, A549 P300 HiBit cells; for DC50: A549 P300 HiBit cells. It is filed as cell-based. In short, it runs like this: (§1)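 HiBiT knock-in A549 cells received compound in serial dilution at 37 °C under 5% CO2. Remaining tagged protein was quantified by lytic HiBiT luminescence after 10 min shaking at room temperature, yielding potency and maximal degradation.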

Assay [2] concerns the target T2, CBP (Homo sapiens, UniProt Q92793).
T2 construct: host or cells: A549 CBP HiBit cells
Briefly: CBP degradation, HiBit technology in A549 CBP HiBit cells (24 h). Particulars: 24 hrs post treatment. It is filed as cell-based. In outline:
as §1
(With HiBiT, luminescence reflects the tagged protein that the partner subunit can reach.)

In general, Dmax refers to the greatest extent of degradation seen. Usually DC50 stands for the midpoint of the concentration-degradation curve.

A value given as a limit tells only on which side of the number the result lay.

T1 sequence (Q09472 whole entry): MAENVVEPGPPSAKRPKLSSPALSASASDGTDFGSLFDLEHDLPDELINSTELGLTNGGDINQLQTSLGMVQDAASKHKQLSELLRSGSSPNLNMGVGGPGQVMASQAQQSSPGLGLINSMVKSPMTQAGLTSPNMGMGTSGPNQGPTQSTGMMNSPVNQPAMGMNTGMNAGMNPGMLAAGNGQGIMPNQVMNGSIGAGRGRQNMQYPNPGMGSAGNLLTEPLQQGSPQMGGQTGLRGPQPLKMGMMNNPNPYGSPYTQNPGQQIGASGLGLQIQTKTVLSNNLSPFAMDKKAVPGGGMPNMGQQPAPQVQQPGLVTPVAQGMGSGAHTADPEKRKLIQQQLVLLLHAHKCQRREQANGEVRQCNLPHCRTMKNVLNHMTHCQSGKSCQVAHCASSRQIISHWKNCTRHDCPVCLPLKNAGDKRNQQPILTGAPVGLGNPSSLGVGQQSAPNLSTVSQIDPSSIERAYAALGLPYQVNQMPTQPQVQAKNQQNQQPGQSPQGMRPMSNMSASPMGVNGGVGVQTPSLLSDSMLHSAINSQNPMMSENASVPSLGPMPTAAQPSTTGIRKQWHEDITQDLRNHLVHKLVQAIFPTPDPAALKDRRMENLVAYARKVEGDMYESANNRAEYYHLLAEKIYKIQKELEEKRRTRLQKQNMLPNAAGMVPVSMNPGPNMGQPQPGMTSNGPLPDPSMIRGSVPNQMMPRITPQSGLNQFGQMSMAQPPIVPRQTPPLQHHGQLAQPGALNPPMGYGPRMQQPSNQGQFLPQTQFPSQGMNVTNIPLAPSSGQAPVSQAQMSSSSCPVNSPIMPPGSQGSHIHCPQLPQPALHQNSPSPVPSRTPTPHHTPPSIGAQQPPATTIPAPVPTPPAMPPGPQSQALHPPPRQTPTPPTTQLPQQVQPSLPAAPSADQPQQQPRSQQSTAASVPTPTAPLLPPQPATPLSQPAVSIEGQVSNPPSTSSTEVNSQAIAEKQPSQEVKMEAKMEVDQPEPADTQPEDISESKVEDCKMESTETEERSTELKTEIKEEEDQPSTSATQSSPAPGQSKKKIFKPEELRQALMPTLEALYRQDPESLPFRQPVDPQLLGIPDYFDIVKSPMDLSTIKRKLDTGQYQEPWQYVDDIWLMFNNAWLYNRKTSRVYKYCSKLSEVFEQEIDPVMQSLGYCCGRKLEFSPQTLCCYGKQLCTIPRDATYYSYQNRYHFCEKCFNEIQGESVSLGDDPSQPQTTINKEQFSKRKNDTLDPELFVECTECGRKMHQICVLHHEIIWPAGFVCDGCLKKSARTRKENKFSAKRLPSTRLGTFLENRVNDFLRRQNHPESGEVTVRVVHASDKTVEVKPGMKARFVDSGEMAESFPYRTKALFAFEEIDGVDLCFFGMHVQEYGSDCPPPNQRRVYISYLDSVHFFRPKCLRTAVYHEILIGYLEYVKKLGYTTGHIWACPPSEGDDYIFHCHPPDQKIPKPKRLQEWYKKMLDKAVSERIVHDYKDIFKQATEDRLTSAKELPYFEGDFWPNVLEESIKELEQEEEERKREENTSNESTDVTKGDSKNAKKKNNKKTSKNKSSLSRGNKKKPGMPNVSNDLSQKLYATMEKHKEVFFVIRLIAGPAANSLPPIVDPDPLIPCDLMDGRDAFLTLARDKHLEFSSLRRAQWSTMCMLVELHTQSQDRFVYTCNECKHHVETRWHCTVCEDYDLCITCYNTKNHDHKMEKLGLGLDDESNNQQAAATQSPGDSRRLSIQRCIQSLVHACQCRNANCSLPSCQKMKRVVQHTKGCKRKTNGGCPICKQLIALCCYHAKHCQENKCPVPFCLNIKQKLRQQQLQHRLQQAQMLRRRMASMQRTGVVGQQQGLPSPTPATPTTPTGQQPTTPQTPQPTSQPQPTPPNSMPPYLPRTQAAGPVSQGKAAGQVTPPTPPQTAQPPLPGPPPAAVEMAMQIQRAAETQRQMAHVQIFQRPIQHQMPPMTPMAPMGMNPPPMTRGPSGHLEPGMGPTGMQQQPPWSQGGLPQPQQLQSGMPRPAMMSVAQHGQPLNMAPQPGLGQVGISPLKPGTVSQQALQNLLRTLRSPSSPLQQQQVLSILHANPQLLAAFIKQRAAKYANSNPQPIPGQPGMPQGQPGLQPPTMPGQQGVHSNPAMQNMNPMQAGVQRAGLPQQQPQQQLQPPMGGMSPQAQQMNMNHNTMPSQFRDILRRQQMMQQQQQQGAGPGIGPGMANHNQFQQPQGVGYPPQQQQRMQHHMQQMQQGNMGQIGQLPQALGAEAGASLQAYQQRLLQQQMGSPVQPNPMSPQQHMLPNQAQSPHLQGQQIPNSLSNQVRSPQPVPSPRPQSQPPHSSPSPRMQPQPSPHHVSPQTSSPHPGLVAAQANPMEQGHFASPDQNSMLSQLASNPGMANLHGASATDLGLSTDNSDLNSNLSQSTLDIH
T2 sequence (Q92793 whole entry): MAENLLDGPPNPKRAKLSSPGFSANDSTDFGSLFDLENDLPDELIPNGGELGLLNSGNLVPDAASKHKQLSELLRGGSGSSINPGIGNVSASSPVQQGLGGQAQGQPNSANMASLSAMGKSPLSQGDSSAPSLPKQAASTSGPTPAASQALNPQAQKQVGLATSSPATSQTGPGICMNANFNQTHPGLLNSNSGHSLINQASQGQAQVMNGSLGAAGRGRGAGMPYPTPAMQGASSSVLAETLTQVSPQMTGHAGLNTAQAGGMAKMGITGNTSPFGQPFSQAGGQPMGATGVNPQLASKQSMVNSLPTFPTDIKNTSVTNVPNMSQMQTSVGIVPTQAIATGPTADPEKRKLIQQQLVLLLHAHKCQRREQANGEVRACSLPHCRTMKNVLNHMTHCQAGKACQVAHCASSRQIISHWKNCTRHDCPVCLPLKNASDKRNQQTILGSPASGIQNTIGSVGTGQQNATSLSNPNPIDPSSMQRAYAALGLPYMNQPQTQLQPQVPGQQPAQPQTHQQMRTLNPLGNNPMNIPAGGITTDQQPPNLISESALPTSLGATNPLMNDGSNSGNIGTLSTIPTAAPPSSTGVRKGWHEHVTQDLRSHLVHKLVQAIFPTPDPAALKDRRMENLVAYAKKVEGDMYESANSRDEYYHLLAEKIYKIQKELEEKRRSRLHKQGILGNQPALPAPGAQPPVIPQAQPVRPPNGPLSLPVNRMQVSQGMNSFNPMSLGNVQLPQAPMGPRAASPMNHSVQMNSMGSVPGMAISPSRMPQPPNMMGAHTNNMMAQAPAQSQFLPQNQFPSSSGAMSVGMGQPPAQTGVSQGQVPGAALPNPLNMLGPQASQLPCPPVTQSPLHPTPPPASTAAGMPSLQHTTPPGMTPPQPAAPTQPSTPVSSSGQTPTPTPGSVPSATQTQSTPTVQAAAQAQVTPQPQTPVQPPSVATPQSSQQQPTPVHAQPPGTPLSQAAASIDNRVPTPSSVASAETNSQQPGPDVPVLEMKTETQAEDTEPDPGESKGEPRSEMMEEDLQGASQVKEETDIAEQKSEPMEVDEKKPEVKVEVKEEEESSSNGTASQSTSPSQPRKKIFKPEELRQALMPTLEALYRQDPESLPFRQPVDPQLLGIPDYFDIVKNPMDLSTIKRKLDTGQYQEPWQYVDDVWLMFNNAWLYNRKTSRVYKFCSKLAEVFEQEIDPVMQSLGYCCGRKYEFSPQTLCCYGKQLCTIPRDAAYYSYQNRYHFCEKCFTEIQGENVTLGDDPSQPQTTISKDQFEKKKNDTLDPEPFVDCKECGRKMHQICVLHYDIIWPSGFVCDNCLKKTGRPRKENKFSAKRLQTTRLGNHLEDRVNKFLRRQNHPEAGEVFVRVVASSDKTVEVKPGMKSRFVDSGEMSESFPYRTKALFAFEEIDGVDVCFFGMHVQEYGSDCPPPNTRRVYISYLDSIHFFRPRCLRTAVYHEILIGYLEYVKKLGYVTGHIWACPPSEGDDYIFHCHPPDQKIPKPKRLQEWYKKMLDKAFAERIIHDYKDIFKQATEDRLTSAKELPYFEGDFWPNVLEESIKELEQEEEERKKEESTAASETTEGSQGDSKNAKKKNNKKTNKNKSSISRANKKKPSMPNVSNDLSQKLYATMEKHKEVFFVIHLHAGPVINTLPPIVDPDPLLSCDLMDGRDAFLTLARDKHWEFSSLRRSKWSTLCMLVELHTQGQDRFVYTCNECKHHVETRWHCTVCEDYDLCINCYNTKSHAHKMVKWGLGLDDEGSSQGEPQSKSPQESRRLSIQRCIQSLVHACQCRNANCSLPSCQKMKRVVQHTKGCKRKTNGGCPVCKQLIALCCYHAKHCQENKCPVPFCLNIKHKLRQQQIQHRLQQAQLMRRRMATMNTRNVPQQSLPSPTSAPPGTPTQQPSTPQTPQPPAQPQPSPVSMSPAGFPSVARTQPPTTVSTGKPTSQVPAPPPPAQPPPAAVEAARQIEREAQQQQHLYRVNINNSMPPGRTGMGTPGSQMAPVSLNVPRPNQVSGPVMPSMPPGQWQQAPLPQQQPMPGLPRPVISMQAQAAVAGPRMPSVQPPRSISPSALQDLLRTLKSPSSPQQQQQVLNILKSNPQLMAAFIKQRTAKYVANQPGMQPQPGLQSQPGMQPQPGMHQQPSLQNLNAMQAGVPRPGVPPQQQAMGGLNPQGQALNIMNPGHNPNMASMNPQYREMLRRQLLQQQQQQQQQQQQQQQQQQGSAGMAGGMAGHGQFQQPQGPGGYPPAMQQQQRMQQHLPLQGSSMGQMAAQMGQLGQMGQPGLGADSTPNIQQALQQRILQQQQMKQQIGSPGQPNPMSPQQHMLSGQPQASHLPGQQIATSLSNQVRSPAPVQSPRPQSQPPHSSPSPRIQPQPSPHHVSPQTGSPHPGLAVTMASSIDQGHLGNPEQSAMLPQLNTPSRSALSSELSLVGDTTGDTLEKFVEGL

Take `Cn1c(=O)n(C)c2c(N3CCC(O)CC3)nc(-c3cccc4cc(-c5ccc(C(=O)NCC#Cc6ccc7occ(C8CCC(=O)NC8=O)c7c6)nc5)ncc34)cc21` (stereo not drawn) [Example A124, N-(3-(3-(2,6-dioxo-piperidin-3-yl)benzofuran-5-yl)prop-2-yn-1-yl)-5-(8-(4-(4-hydroxypiperidin-1-yl)-1,3-dimethyl-2-oxo-2,3-dihydro-1H-imidazo[4,5-c]pyridin-6-yl)isoquinolin-3-yl)picolinamide]: in assay [1], the Dmax was greater than 80% and the DC50 was less than 1 nM. In assay [2], this compound yielded a DC50 greater than 1000 nM and a Dmax of less than 20%.
The like results for `CCc1cc(-c2cccc3cc(-c4ccc(C(=O)NCC#Cc5cccc(CC6CCC(=O)NC6=O)c5)nc4)ncc23)c2cc(C)c(=O)n(C)c2c1` (stereo not drawn) [Example B4, N-(3-(3-((2,6-Dioxopiperidin-3-yl)methyl)phenyl)prop-2-yn-1-yl)-5-(8-(7-ethyl-1,3-dimethyl-2-oxo-1,2-dihydroquinolin-5-yl)isoquinolin-3-yl)picolinamide] were, in that order, 60 to 79%, 10 to 99 nM, 100 to 999 nM and 40 to 59%.
The like results for `COc1cc(-c2ncc3c(n2)CCCN3c2cc(C3CCOCC3)cc3c2cc(C)c(=O)n3C)cnc1C(=O)NCC#Cc1ccc2occ(C3CCC(=O)NC3=O)c2c1` (stereo not drawn) [Example B24, 5-(5-(1,3-dimethyl-2-oxo-7-(tetrahydro-2H-pyran-4-yl)-1,2-dihydroquinolin-5-yl)-5,6,7,8-tetrahydropyrido[3,2-d]pyrimidin-2-yl)-N-(3-(3-(2,6-dioxopiperidin-3-yl)benzofuran-5-yl)prop-2-yn-1-yl)-3-methoxypicolinamide] were, in that order, greater than 80%, 1 to 9.9 nM, greater than 1000 nM and less than 20%.
For `Cn1c(=O)n(C)c2cc(-c3cccc4cc(-c5ccc(C(=O)NCC#Cc6cc7c([C@@H]8CCC(=O)NC8=O)cccc7o6)nc5)ncc34)ccc21` [Example A171, (S)-5-(8-(1,3-dimethyl-2-oxo-2,3-dihydro-1H-benzo[d]imidazol-5-yl)isoquinolin-3-yl)-N-(3-(4-(2,6-dioxopiperidin-3-yl)benzofuran-2-yl)prop-2-yn-1-yl)picolinamide] the same measures were greater than 80%, 1 to 9.9 nM, greater than 1000 nM and less than 20%.
With `Cc1cc2c(N3CCN(C)c4nc(-c5ccc(C(=O)NCC#Cc6cc7c(C8CCC(=O)NC8=O)nccc7o6)nc5)ncc43)cccc2n(C)c1=O` (stereo not drawn) [Example B32, 5-(5-(1,3-dimethyl-2-oxo-1,2-dihydroquinolin-5-yl)-8-methyl-5,6,7,8-tetrahydropteridin-2-yl)-N-(3-(4-(2,6-dioxopiperidin-3-yl)furo[3,2-c]pyridin-2-yl)prop-2-yn-1-yl)picolinamide], the values for the Dmax in assay [1] and in assay [2] were greater than 80% and 60 to 79%, respectively. Further, the DC50 in assay [1] was less than 1 nM; in assay [2] it was 1 to 9.9 nM.
For the compound `CC(C)c1cc(N(C)c2cnc(-c3ccc(C(=O)NCC#Cc4ccc5cnn(C6CCC(=O)NC6=O)c5c4)nc3)nc2)cc2c1n(C)c(=O)n2C` (stereo not drawn) [Example A211, N-(3-(1-(2,6-dioxo-piperidin-3-yl)-1H-indazol-6-yl)prop-2-yn-1-yl)-5-(5-((7-isopropyl-1,3-dimethyl-2-oxo-2,3-dihydro-1H-benzo [d]imidazol-5-yl)(methyl)amino)pyrimidin-2-yl)picolinamide], in assay [1], the Dmax was greater than 80% and the DC50 was in the range of 1 to 9.9 nM. In assay [2], this compound returned a DC50 greater than 1000 nM and a Dmax of less than 20%.
For `Cn1c(=O)n(C)c2c(N3CC4(COC4)C3)nc(-c3cccc4cc(-c5ccc(C(=O)NCC#Cc6ccc7occ(C8CCC(=O)NC8=O)c7c6)nc5)ncc34)cc21` (stereo not drawn) [Example A136, 5-(8-(1,3-dimethyl-2-oxo-4-(2-oxa-6-azaspiro[3.3]heptan-6-yl)-2,3-dihydro-1H-imidazo[4,5-c]pyridin-6-yl)isoquinolin-3-yl)-N-(3-(3-(2,6-dioxopiperidin-3-yl)benzofuran-5-yl)prop-2-yn-1-yl)picolinamide], the Dmax is greater than 80% in assay [1] and less than 20% in assay [2]. Also, the DC50 in assay [1] is 1 to 9.9 nM; in assay [2], greater than 1000 nM.
With `Cc1cc2c(N3CCCc4nc(-c5ccc(C(=O)NCC#Cc6cc7c(C8CCC(=O)NC8=O)cccc7o6)nc5)ncc43)nc(N3CC(C)(O)C3)cc2n(C)c1=O` (stereo not drawn) [Example B168, N-(3-(4-(2,6-dioxopiperidin-3-yl)benzofuran-2-yl)prop-2-yn-1-yl)-5-(5-(7-(3-hydroxy-3-methylazetidin-1-yl)-1,3-dimethyl-2-oxo-1,2-dihydro-1,6-naphthyridin-5-yl)-5,6,7,8-tetrahydropyrido[3,2-d]pyrimidin-2-yl) picolinamide], in assay [1], the Dmax was greater than 80% and the DC50 is less than 1 nM. Also, in assay [2], the DC50 was greater than 1000 nM and the Dmax was less than 20%.
As to `CCN(CC)c1cc2c(cc(C)c(=O)n2C)c(N2CCCc3nc(-c4ccc(C(=O)NCC#Cc5cc6c(C7CCC(=O)NC7=O)nccc6o5)nc4)ncc32)n1` (stereo not drawn) [Example B25, 5-(5-(7-(diethylamino)-1,3-dimethyl-2-oxo-1,2-dihydro-1,6-naphthyridin-5-yl)-5,6,7,8-tetrahydropyrido[3,2-d]pyrimidin-2-yl)-N-(3-(4-(2,6-dioxopiperidin-3-yl)furo[3,2-c]pyridin-2-yl)prop-2-yn-1-yl)picolinamide], in assay [1], the Dmax is greater than 80% and the DC50 was in the range of 1 to 9.9 nM. In assay [2], this compound yielded a DC50 of 10 to 99 nM and a Dmax of 20 to 39%.
As for `Cc1cc2c(N3CCCc4nc(-c5ccc(C(=O)NCC#Cc6ccc7occ([C@@H]8CCC(=O)NC8=O)c7c6)nc5)ncc43)cc(C3CCOCC3)cc2n(C)c1=O` [Example B55, (S)-5-(5-(1,3-dimethyl-2-oxo-7-(tetrahydro-2H-pyran-4-yl)-1,2-dihydroquinolin-5-yl)-5,6,7,8-tetrahydropyrido[3,2-d]pyrimidin-2-yl)-N-(3-(3-(2,6-dioxopiperidin-3-yl)benzofuran-5-yl)prop-2-yn-1-yl)picolinamide], the Dmax in assay [1] is greater than 80%; in assay [2], less than 20%. Further, the DC50 is 1 to 9.9 nM in assay [1] and greater than 1000 nM in assay [2].
On to `CC(C)c1cc(N2CCOc3nc(-c4ccc(C(=O)NCC#Cc5ccc6occ(C7CCC(=O)NC7=O)c6c5)nc4)ncc32)cc2c1n(C)c(=O)n2C` (stereo not drawn) [Example A89, N-(3-(3-(2,6-dioxo-piperidin-3-yl)benzofuran-5-yl)prop-2-yn-1-yl)-5-(5-(7-isopropyl-1,3-dimethyl-2-oxo-2,3-dihydro-1H-benzo[d]imidazol-5-yl)-6,7-dihydro-5H-pyrimido [4,5-b][1,4]oxazin-2-yl)picolinamide], for which the Dmax was greater than 80% in assay [1] and less than 20% in assay [2]. For the same compound, the DC50 in assay [1] and in assay [2] was greater than 1000 nM in each case.
For the compound `Cc1cc2c(N3CCCc4nc(-c5ccc(C(=O)NCC#Cc6cc7c([C@H]8CCC(=O)NC8=O)cccc7o6)nc5)ncc43)cc(C3CCOCC3)cc2n(C)c1=O` [Example B38, (R)-5-(5-(1,3-dimethyl-2-oxo-7-(tetrahydro-2H-pyran-4-yl)-1,2-dihydroquinolin-5-yl)-5,6,7,8-tetrahydropyrido[3,2-d]pyrimidin-2-yl)-N-(3-(4-(2,6-dioxopiperidin-3-yl)benzofuran-2-yl)prop-2-yn-1-yl)picolinamide], in assay [1], the Dmax is greater than 80% and the DC50 was less than 1 nM. In assay [2], this compound yielded a DC50 greater than 1000 nM and a Dmax of less than 20%.
`Cc1cc(-c2ncc3c(n2)CCCN3c2cc(C3CCOCC3)nc3c2cc(C)c(=O)n3C)cnc1C(=O)NCC#Cc1cc2c(C3CCC(=O)NC3=O)cccc2o1` (stereo not drawn) [Example B103, 5-(5-(6,8-dimethyl-7-oxo-2-(tetrahydro-2H-pyran-4-yl)-7,8-dihydro-1,8-naphthyridin-4-yl)-5,6,7,8-tetrahydropyrido[3,2-d]pyrimidin-2-yl)-N-(3-(4-(2,6-dioxopiperidin-3-yl)benzofuran-2-yl)prop-2-yn-1-yl)-3-methylpicolinamide]: in assay [1], the Dmax is greater than 80% and the DC50 is 1 to 9.9 nM. In assay [2], this compound yielded a DC50 of 100 to 999 nM and a Dmax of less than 20%.
Turning to `Cc1cc(-c2cc3cccc(-c4ccc5c(c4)n(C)c(=O)n5C)c3cn2)cnc1C(=O)NCC#Cc1cc2c(C3CCC(=O)NC3=O)cccc2o1` (stereo not drawn) [Example A180, 5-(8-(1,3-dimethyl-2-oxo-2,3-dihydro-1H-benzo[d]imidazol-5-yl)isoquinolin-3-yl)-N-(3-(4-(2,6-dioxo-piperidin-3-yl)benzofuran-2-yl)prop-2-yn-1-yl)-3-methylpicolinamide], in assay [1], the Dmax was greater than 80% and the DC50 lay within 1 to 9.9 nM. Also, in assay [2], the DC50 is greater than 1000 nM and the Dmax is less than 20%.
In assay [1], `Cc1cc2c(N3CCCc4nc(-c5ccc(C(=O)NCC#Cc6ccc7onc(C8CCC(=O)NC8=O)c7c6)nc5)ncc43)cc(C3CCOCC3)cc2n(C)c1=O` (stereo not drawn) [Example B108, 5-(5-(1,3-dimethyl-2-oxo-7-(tetrahydro-2H-pyran-4-yl)-1,2-dihydroquinolin-5-yl)-5,6,7,8-tetrahydropyrido[3,2-d]pyrimidin-2-yl)-N-(3-(3-(2,6-dioxopiperidin-3-yl)benzo[d]isoxazol-5-yl)prop-2-yn-1-yl)picolinamide] yielded a Dmax greater than 80% and a DC50 of less than 1 nM. In assay [2], this compound came in with a DC50 of 100 to 999 nM and a Dmax of less than 20%.
